Measured values: patent publication US20250320246A1, “3-AZASTEROID COMPOUNDS FOR THE TREATMENT OF DISEASES RELATED TO MITROCHONDRIAL FUNCTION” (NZP UK LIMITED, priority 2022, published 2025)

Key:
[1] = tested on: sporadic PD patient fibroblasts; experiment: Cellular ATP levels in sporadic PD patient fibroblasts, full ATP assay; format: cell-based, human; settings: Homo sapiens, Fibroblast, 24 h, 3 sporadic PD patient fibroblasts; for EC50: 8-point range 0.06 nM-300 nM; for Emax at 0.3 µM: max response with highest dose of compound (300 nM), read-out: ATP % of vehicle, top %; for activity at 60 pM: max response with lowest dose of compound (0.06 nM), read-out: ATP % of vehicle, bottom %
Procedure: (§1) Primary fibroblast cells were cultured continuously in Glucose based medium (high glucose (4500 mg/L) Dulbecco's Modified Eagle's medium (DMEM; Sigma-Aldrich) supplemented with 10% fetal bovine serum (Sigma-Aldrich), 100 IU/mL penicillin, 100 μg/mL streptomycin (Lonza), 1 mM sodium pyruvate (Sigma-Aldrich) and 50 μg/mL uridine (Sigma-Aldrich)). Unless otherwise stated, 24 hours prior to analysis, the Glucose based medium was exchanged for Galactose based medium (glucose-free DMEM (Gibco) with the same supplementation and in addition, 5 mM galactose (Sigma-Aldrich)). All cells were assessed between passage 6-10.
The ATP protocol is generally as described in Mortiboys et al 2008. Briefly, fibroblasts were cultured as and plated into white 384 well plates at a concentration of 5000 cells per well in 50 μl of media volume. The plates are left overnight in an incubator to allow the fibroblasts to adhere to the plate surface. The following morning the Glucose based medium is replaced with 25 μl of Galactose based medium. The plates were then spiked with the compounds using a ECHO 550 liquid handling system. The wells were dosed to provide an 8-point concentration range of 0.06 nM-300 nM of compound. After dosing the wells are topped up with a further 25 μl of Galactose based medium and then left in an incubator for 24 hours. Following this incubation, the medium is removed from the plate and the wells are washed twice with sterile PBS. The wells are filled with 25 μl of Sterile PBS followed by 12.5 μl of Lysis solution from the ATPlite™ Luminescence ATP detection assay system (Perkin Elmer), including 16 cell free wells to use as blank controls. The plate is then placed on a rotary shaker for 5 mins at 700 rpm. Following the shaking 12.5 μl of ATP substrate solution (Perkin Elmer) is added to each well and a further 5 min of shaking. The plate is then placed in darkness for 10 minutes prior to reading. Using a PHERAStar® plate reader, luminescence intensity is recorded. Following the ATP assay the plates are immediately assayed for DNA content in a CyQUANT® assay.
Immediately following The ATP assay DNA content is assessed with the CyQUANT® NF Cell Proliferation Assay Kit (ThermoFisher). CyQUANT® buffer is prepared immediately before the assay and is comprised of 1 μl CyQUANT® dye per ml×1 HBSS solution. 12.5 μl of CyQUANT® buffer is added to each well. Plate left in incubator for 1 hour then read on a PHERAStar© Plate reader with excitation at 497 nm and emission at 520 nm.
ATP Quantification for each well is determined using the following formula: […]
After the assays had been repeated in triplicate per line and compound the data was then inputted into Graph pad Prism 7 software suite where a dose response curve is generated using the default “[Agonist] vs response(three parameters)” equation.
From this EC50 values, lowest response and maximal response were taken and used to calculate the Geometric mean between the 5 different lines assessed.

[2] = tested on: sporadic PD patient fibroblasts; experiment: Mitochondrial membrane potential (MMP, TMRM) in sporadic PD patient fibroblasts; format: cell-based, human; settings: Homo sapiens, Fibroblast, 24 h, 3 sporadic PD patient fibroblasts; for EC50: 8-point range 0.06 nM-300 nM; for Emax: max response with highest dose of compound (300 nM), read-out: MMP % of vehicle, top %; for activity at 60 pM: max response with lowest dose of compound (0.06 nM), read-out: MMP % of vehicle, bottom %
Procedure: as §1
Fibroblasts were cultured and plated into a greiner black 384 μClear® plate at a concentration of 1000 cells per well in 50 μl of media volume. The plates are left overnight in an incubator to allow the fibroblasts to adhere to the plate surface. The following morning the Glucose based medium is replaced with 25 μl of Galactose based medium. The plates were then dosed with the compounds using an ECHO® 550 liquid handling system. The wells were dosed to provide an 8-point concentration range of 0.06 nM-300 nM of compound. After dosing the wells are topped up with a further 25 μl of Galactose based medium and then left in an incubator for 24 hours. After 24 hours, the medium is removed from the wells and replaced with 25 μl phenol free Minimal essential medium supplemented with 10% FBS, 1% Penicillin-streptomycin, 1% sodium pyruvate, 0.1% uridine, 1% non-essential amino acids and 1% MEM vitamins with 80 nM TMRM (Sigma) and 10 μM Hoechst Stain (Sigma). The plate is returned to the incubator for another hour after which the stain medium is removed and replaced with 25 μl Phenol free MEM. The plate is then imaged using an IN Cell high content microscope (GE Healthcare) with fields of view per well in 2 channels, Cy3 excitation 542 nm, emission 604-64 nm; and the DAPI excitation 350 nm, emission 450-55 nm at 37° C. with CO2. After imaging the plate is disposed of and the images are Data mined using the INCell developer Toolkit (GE Healthcare).
After the assays had been repeated in triplicate per line and compound the data was then inputted into Graph pad Prism 7 software suite where a dose response curve is generated using the default “[Agonist] vs response(three parameters)” equation. […]

SMILES | EC50 [1] [nM] | Emax at 0.3 µM [1] [%] | activity at 60 pM [1] [%] | EC50 [2] [nM] | Emax [2] [%] | activity at 60 pM [2] [%]
C[C@H](CCCC(=O)O)[C@H]1CC[C@H]2[C@@H]3[C@@H](O)C[C@@H]4CN(C(=O)CO)CC[C@]4(C)[C@H]3CC[C@]12C [Compound 40b, N-Glycolyl-3-aza-7β-hydroxy-25-homo-5β-cholan-25-oic acid] | 19.5 | 130 | 101 | 26.1 | 131 | 95.3
CC(C)[C@H](N)C(=O)N1CC[C@@]2(C)[C@H](C[C@H](O)[C@@H]3[C@@H]2CC[C@]2(C)[C@@H]([C@H](C)CCCC(=O)O)CC[C@@H]32)C1 [Compound 41b, N-[(2S)-2-Amino-3-methylbutanoyl]-3-aza-7β-hydroxy-25-homo-5β-cholan-25-oic acid hydrotrifluoroacetate] |  |  | 78.9 |  |  | 84.6
CC[C@H](C)[C@H](N)C(=O)N1CC[C@@]2(C)[C@H](C[C@H](O)[C@@H]3[C@@H]2CC[C@]2(C)[C@@H]([C@H](C)CCC(=O)O)CC[C@@H]32)C1 [Compound 42a, N-[(2S,3S)-2-Amino-3-methylpentanoyl]-3-aza-7β-hydroxy-5β-cholan-24-oic acid hydrotrifluoroacetate] | 134 | 64.5 | 89.6 | 130 | 69.2 | 71.3
CC[C@H](C)[C@H](N)C(=O)N1CC[C@@]2(C)[C@H](C[C@H](O)[C@@H]3[C@@H]2CC[C@]2(C)[C@@H]([C@H](C)CCCC(=O)O)CC[C@@H]32)C1 [Compound 42b, N-[(2S,3S)-2-Amino-3-methylpentanoyl]-3-aza-7β-hydroxy-25-homo-5β-cholan-25-oic acid hydrotrifluoroacetate] | 25.4 | 98.5 | 91.3 | 5.1 | 96.6 | 92.2
CC(C)C[C@H](N)C(=O)N1CC[C@@]2(C)[C@H](C[C@H](O)[C@@H]3[C@@H]2CC[C@]2(C)[C@@H]([C@H](C)CCC(=O)O)CC[C@@H]32)C1 [Compound 43a, N-[(2S)-2-Amino-4-methylpentanoyl]-3-aza-7β-hydroxy-5β-cholan-24-oic acid hydrotrifluoroacetate] | 8.9 | 86 | 90.2 | 0.2 | 100 | 84.1
CC(C)C[C@H](N)C(=O)N1CC[C@@]2(C)[C@H](C[C@H](O)[C@@H]3[C@@H]2CC[C@]2(C)[C@@H]([C@H](C)CCCC(=O)O)CC[C@@H]32)C1 [Compound 43b, N-[(2S)-2-Amino-4-methylpentanoyl]-3-aza-7β-hydroxy-25-homo-5β-cholan-25-oic acid hydrotrifluoroacetate] |  | 80.6 |  | 1.1 | 103 | 86.9
C[C@H](CCC(=O)O)[C@H]1CC[C@H]2[C@@H]3[C@@H](O)C[C@@H]4CN(C(=O)[C@@H](N)Cc5c[nH]c6ccccc56)CC[C@]4(C)[C@H]3CC[C@]12C [Compound 44a, N-[(2S)-2-Amino-3-(1H-indol-3-yl)propanoyl]-3-aza-7β-hydroxy-5β-cholan-24-oic acid hydrotrifluoroacetate] | 0.23 | 122 | 65.1 | 0.09 | 102 | 73.5
C[C@H](CCCC(=O)O)[C@H]1CC[C@H]2[C@@H]3[C@@H](O)C[C@@H]4CN(C(=O)[C@@H](N)Cc5c[nH]c6ccccc56)CC[C@]4(C)[C@H]3CC[C@]12C [Compound 44b, N-[(2S)-2-Amino-3-(1H-indol-3-yl)propanoyl]-3-aza-7β-hydroxy-25-homo-5β-cholan-25-oic acid hydrotrifluoroacetate] |  | 98.4 |  | 0.11 | 98.8 | 77.8
C[C@H](CCC(=O)O)[C@H]1CC[C@H]2[C@@H]3[C@@H](O)C[C@@H]4CN(C(=O)[C@@H](N)Cc5ccc(O)cc5)CC[C@]4(C)[C@H]3CC[C@]12C [Compound 45a, N-[(2S)-2-Amino-3-(4-hydroxyphenyl)propanoyl]-3-aza-7β-hydroxy-5β-cholan-24-oic acid hydrotrifluoroacetate] | 0.25 | 97.2 | 83.8 | 0.18 | 95.1 | 82.3
